In patent US6455472B1, “Phenyl-substituted cyclic enaminones” (Bayer Aktiengesellschaft, priority 1998, dated 2002):

Test system: not given
Assay: not given
Conditions: not given
For `N#C/C(C(=O)c1ccc(Cl)cc1)=C1\CCC(C(=O)O)N1` (centres unmarked) [Example 8, 5-[2-(4-chloro-phenyl)-1-cyano-2-oxo-ethylidene]-pyrrolidine-2-carboxylic acid], the melting point was 134 to 136 °C. For `CCOC(=O)C1CC/C(=C(\C#N)C(=O)c2ccc(Cl)cc2)N1` (centres unmarked) [Example 7, ethyl 5-[2-(4-chloro-phenyl)-1-cyano-2-oxo-ethylidene]-pyrrolidine-2-carboxylate], the melting point was 108 to 110 °C. With `N#C/C(C(=O)c1ccc(NS(=O)(=O)C(F)(F)F)cc1)=C1\CCCCN1` [I-1-a-138, 3-[4-(trifluoromethanesulphonylamino)-phenyl]-3-oxo-2-piperidin-2-ylidene-propionitrile] the melting point was 197 °C. For `CN1CCC/C1=C(\C#N)C(=O)c1ccc(Cl)cc1` [I-1-a-110, 3-(4-chloro-phenyl)-3-oxo-2-(1-methyl-pyrrolidin-2-ylidene)-propionitrile], the melting point was 115 °C. In the case of `CCOC(=O)C1CC/C(=C(\C#N)C(=O)c2ccccc2Cl)N1` (stereo not drawn) [I-1-d-4], the melting point is reported as 222 to 224 °C. `COC(=O)CSc1ccc(C(=O)/C(C#N)=C2/CCCCN2)cn1` [I-2-a-6] gave a melting point of 146 °C. With `N#C/C(C(=O)c1ccc(Cl)cc1)=C1\CCCN1` [Example 1, 3-(4-chlorophenyl)-3-oxo-2-pyrrolidin-2-ylidene-propionitrile] the melting point was 156 to 158 °C. `N#C/C(C(=O)c1ccc(-c2ccc(Cl)cc2)cc1)=C1\CCCCN1` [I-1-a-54, 3-(4′-chloro-biphenyl-4-yl)-3-oxo-2-piperidin-2-ylidene-propionitrile] showed a melting point of 134 °C. Work on `N#C/C(C(=S)c1ccc(Cl)cc1)=C1\CCCCN1` [I-1-a-151, 3-(4-chloro-phenyl)-3-thio-2-piperidin-2-ylidene-propionitrile] yielded a melting point of 137 °C. `N#C/C(C(=O)c1ccc(Cl)cc1)=C1\CCCN1C(=O)c1ccc(Cl)cc1` [Example 5, 2-[1-(4-chlorobenzoyl)pyrrolidin-2-ylidene]-3-(4-chlorophenyl)-3-oxo-propionitrile] showed a melting point of 218 °C. Compound `N#C/C(C(=O)c1ccc(SCC(=O)O)nc1)=C1\CCCCN1` [I-2-a-7] has a melting point of 155 °C.

Test system: weeds
Assay: Post emergence test, weeds
Assay type: in vivo
Conditions: sprayed, assessed after 3 weeks, application rate not stated
Protocol: (§1) Solvent: 5 parts by weight of acetone
(§2) Emulsifier: 1 part by weight of alkylaryl polyglycol ether
(§3) To produce a suitable preparation of active compound, 1 part by weight of active compound is mixed with the stated amount of solvent, the stated amount of emulsifier is added and the concentrate is diluted with water to the desired concentration.
Test plants which have a height of 5 to 15 cm are sprayed with the preparation of active compound such that the particular desired amounts of active compound are applied per unit area. After 3 weeks, the degree of damage to the plants is assessed in % damage in comparison to the development of the untreated controls.
With `N#C/C(C(=O)c1ccc(-c2ccc(Cl)cc2)cc1)=C1\CCCCN1` [I-1-a-54, 3-(4′-chloro-biphenyl-4-yl)-3-oxo-2-piperidin-2-ylidene-propionitrile] the “activity against weeds (% damage)” value was “strong activity”.

Test system: weeds
Assay: Pre-emergence test, weeds
Assay type: in vivo
Conditions: soil watered 24 hours after sowing, assessed after three weeks, application rate not stated
Protocol: as §1, §2, §3
Seeds of the test plants are sown in normal soil and, after 24 hours, watered with the preparation of active compound. The amount of water per unit area is advantageously kept constant. The concentration of active compound in the preparation is immaterial, only the active compound application rate per unit area matters. After three weeks, the degree of damage to the plants is assessed in % damage in comparison with the development of the untreated control.
For `N#C/C(C(=O)c1ccc(-c2ccc(Cl)cc2)cc1)=C1\CCCCN1` [I-1-a-54, 3-(4′-chloro-biphenyl-4-yl)-3-oxo-2-piperidin-2-ylidene-propionitrile], the “activity against weeds (% damage)” value was “strong activity”.

Test system: caterpillars of the army worm (Spodoptera frugiperda)
Assay: Spodoptera frugiperda test
Assay type: in vivo
Conditions: cabbage leaves (Brassica oleracea) dipped into preparation of active compound; concentration and time not stated
Protocol: Solvent: 7 parts by weight of dimethylformamide
Emulsifier:: 1 part by weight of alkylaryl polyglycol ether
To produce a suitable preparation of active compound, 1 part by weight of active compound is mixed with the stated amounts of solvent and emulsifier, and the concentrate is diluted with water to the desired concentration.
Cabbage leaves (Brassica oleracea) are treated by being dipped into the preparation of active compound of the desired concentration and are populated with caterpillars of the army worm (Spodoptera frugiperda) while the leaves are still moist.
After the desired period of time, the kill in % is determined. 100% means that all caterpillars have been killed; 0% means that none of the caterpillars have been killed.
In the case of `N#CC(C(=O)c1ccc(Cl)cc1)=C1CCCN1Cc1ccc(Cl)nc1` [Preparation Example 3, 3-(4-chlorophenyl)-2-[1-(6-chloropyridin-3-yl-methyl)-pyrrolidin-2-yli-dene]-3-oxo-propionitrile], the “activity (kill in %) against Spodoptera frugiperda caterpillars” value is reported as “good activity”.
